Format in all cases: physicochemical
Data set [1] can be described thus: Three-electrode cyclic voltammetry of quinones in 1 M KOH (incl. Pourbaix diagram). To be noted: for equilibrium cell potential vs. ferro/ferricyanide suggested by cyclic voltammograms: 1 M KOH, 100 mV/s, glassy carbon electrode; for equilibrium potential of couple with ferrocyanide compared with 2,6-DHAQ/ferrocyanide: CV at 100 mV/s on glassy carbon electrode. The protocol: FIG. 1. Pourbaix diagram of 2,6-DHAQ. […] FIGS. 2a-d. a. Cyclic voltammogram of 2 mM 2,6-DHAQ (left curve) and ferrocyanide (right curve) scanned at 100 mV/s; arrows indicate scan direction. Dotted line represents cyclic voltammogram of 1 M KOH background scanned at 100 mV/s. b and c. Cyclic voltammograms of 2,3,6,7-THAQ (left curve in b) and 1,5-DMAQ (left curve in c), respectively, plotted along ferrocyanide (right curve) scanned at 100 mV/s on glassy carbon electrode.
Electrochemical characterization. A glassy carbon electrode was used for three-electrode cyclic voltammetry tests, except in the electrochemical window tests where graphite foil was used to mimic the condition of porous carbon paper. Rotating-disk electrode (RDE) experiments of 2,6-DHAQ (1 mM) in 1 M KOH solution were performed using a BASi RDE-2 rotating-disk electrode system (FIG. 3a). All tests were carried out using a Gamry Reference 3000 potentiostat, with a Pt counter electrode and an Ag/AgCI reference electrode (equilibrated with 3M NaCI, 213 mV vs. standard hydrogen electrode. A Levich plot was constructed from the RDE data by plotting the mass-transport limited current vs. the square root of the rotation rate (FIG. 3b). The diffusion coefficient of 2,6-DHAQ was calculated for each of three runs from the slope of the line fit to the Levich equation (Bard, A. J. & Faulkner, L. R. Electrochemical Methods: Fundamentals and Applications. (Wiley, 2000)). The kinematic viscosity was taken to be 1.08×10^−6 m^2 s^-1 (Hitchcock, L. B. & Mcllhenny, J. S. Ind. Eng. Chem. 27, 461-466 (1935)). The resulting value of the diffusion coefficient is 4.8(2) x 10^-6 cm^2 s^-1.

Data set [2] can be described thus: Chemical and electrochemical stability by proton NMR. To be noted: sensitivity level of 1%; after 30 days in 5 M KOH at 100° C. and after 100 charge-discharge cycles (FIGS. 15a-c). The method, then:
FIGS. 15a-15c. Chemical and electrochemical stability of 2,6-DHAQ. ^1H NMR (500 MHz, DMSO-d6) spectra. a. 2,6-DHAQ 6: 8.04 (d, 2H, J═8.3 Hz, 2 x ArCH), 7.47 (d, 2H, J═2.5 Hz, 2 x ArCH), 7.19 (dd, 2H, J═8.3, 2.5 Hz, 2 x ArCH). b. 2,6-DHAQ, after 30 days heating in 5 M KOH solution at 100° C. c. 2,6-DHAQ, after 100 charge-discharge cycles.
The cell was cycled at a constant current density of ±0.1 A cm^-2 for 100 cycles (FIG. 14a). […] A 0.1% loss in capacity per cycle was observed during cycling, which appears to be a continuous loss of electro-active species over the 100 cycles (FIG. 14b). We explored three possible loss mechanisms: chemical decomposition, electrolyte crossover through the membrane, and leakage from the pumping system. […] This observation places an upper limit on crossover of 0.8% of the DHAQ, implying a crossover current density of <2.5 μA cm^-2 (FIGS. 16a and 16b). […] A source of leakage was readily apparent but not quantifiable at the exit of the humidified nitrogen bubbling through the negolyte to prevent energy loss by permeation of atmospheric oxygen. Coloration could also be found on the gaskets, indicating a likely site of electrolyte leakage (FIGS. 17a and 17b).

A short description of data set [3]: Crossover study: CV of ferro-ferricyanide posolyte after 100 charge-discharge cycles. To be noted: for fraction of 2,6-DHAQ crossed over the membrane into the posolyte: Nafion membrane. The method, then: FIGS. 16a-16b. Test of electrolyte permeation through membrane. Full (a) and zoomed in (b) cyclic voltammograms of 0.4 M ferro-ferricyanide electrolyte after 100 charge-discharge cycles. Same posolyte to which was added 3.9 mM 2,6-DHAQ, and 7.6 mM 2,6-DHAQ.
Crossover study. The concentration of crossed-over 2,6-DHAQ into the ferro-ferricyanide posolyte solution was evaluated using CV. After 100 charge-discharge cycles, the ferro-ferricyanide posolyte solution (5 mL) was collected and analyzed by CV (scan at 100 mV/s. The correlation between the CV signal and 2,6-DHAQ concentration was established by titrating known amounts of 2,6-DHAQ (12 mg or […]) to the cycled posolyte followed by controlled dilution. The comparison indicates <10 mM 2,6-DHAQ had crossed over into the posolyte, which corresponds to <2% of the 2,6-DHAQ originally assembled into the negolyte.

Data set [4] is described as follows: Solubility measurement by UV-Vis absorbance at 413 nm. To be noted: 1 M KOH solution, pH 14, aqueous buffer, thermodynamic from solid; room temperature, in 1 M KOH. The method, then:
Solubility measurement. Room temperature solubility in 1 M KOH solution was measured by measuring the absorbance at 413 nm and comparing to an absorbance-vs.-concentration calibration curve determined by preparing known concentrations of 2,6-DHAQ. UV-Vis spectrophotometry measurements were performed using an Agilent Cary 60 spectrophotometer equipped with a Quantum
Northwest T2 temperature regulator. Appropriate aliquots of 2,6-DHAQ stock solution were added to 1 M KOH blank solution and their UV-Vis absorbance spectra measured. A saturated solution of 2,6-DHAQ in 1 M KOH was prepared by adding 2,6-DHAQ potassium salt into 1 M KOH solution (10 mL) until a thin layer of precipitate formed, the remaining solution was diluted by known proportions, and the absorbance of the resulting solution was compared to the calibration curve.

A short description of data set [5]: Cyclic voltammogram modeling (simulated fit to measured CV). The method, then: FIGS. 3a-3d. a. Rotating disk electrode study of the reduction of a 1 mM solution of 2,6-DHAQ in 1 M KOH on a glassy carbon electrode at various rotation rates (curves from top to bottom in legend). b. Levich plot of 1 mM 2,6-DHAQ in 1 M KOH. Data are an average of the current at -1.187 V vs. SHE for each of three runs; error bars indicate the standard deviation. c. Cyclic voltammogram of 1 mM 2,6-DHAQ in 1 M KOH (solid line). Dashed lines represent simulated cyclic voltammograms of a two-electron reduction of varying electrochemical rate constant ko and a reduction potential Eo of -0.684 V vs. SHE. The simulations assumed a ═0.5. The scan rate in all cases was 25 mV s^-1. d. Cyclic voltammogram of 1 mM 2,6-DHAQ in 1 M KOH (solid line). Dashed lines represent the simulated components of two successive one-electron reductions with reduction potentials of -0.657 V vs. SHE and -0.717 V vs. SHE, respectively, as well as the simulated total current arising from such a reaction. Each simulated reduction has a rate constant ko ═7 x 10^-3 cm 5^-1. The simulations assumed a ═0.5.
Cyclic voltammogram modeling. Computation was performed using Mathematica 10.0.1.0 according to algorithms by Oldham and Myland (Oldham, K. B. & Myland, J. C. Electrochim. Acta 56, 10612-10625 (2011)). The diffusivity of 2,6-DHAQ and both the one-electron and two-electron reduction products were assumed to be 4.8 x 10^-6 cm^2 s^-1, based on our RDE studies. The temperature was 293 K. Time was discretized into 40 ms increments, and the current at each time was computed based on the sum of previous currents as described by Oldham (Oldham, K. B. & Myland, J. C. Electrochim. Acta 56, 10612-10625 (2011)).
To model the two-electron reduction process (FIG. 1), the Butler-Volmer equation with the number of electrons n ═2 was used in place of Oldham equation (4:5), and the right-hand-side of equation (8:3) was multiplied by 2 to account for a two-electron reduction (Bard, A. J. & Faulkner, L. R. Electrochemical Methods: Fundamentals and Applications. (Wiley, 2000); Oldham, K. B. & Myland, J. C. Electrochim. Acta 56, 10612-10625 (2011)). The reduction potential was assumed to be equal to the voltage equidistant from the two peaks on the measured cyclic voltammogram (-0.684 V vs. SHE) and the charge transfer coefficient a was assumed to be 0.5. The electrochemical rate constant ko was then varied from 10^-3 cm s^-1 to 10^-5 cm s^-1.
To model the two successive one-electron reductions (FIG. 3d), Oldham equations (12:13) and (12:14) were used (Oldham, K. B. & Myland, J. C. Electrochim. Acta 56, 10612-10625 (2011)). The charge transfer coefficients al and a2 were assumed to be equal to 0.5, and the electrochemical rate constants for the two reductions were assumed equal. The values of the single rate constant and the first and second reduction potentials were permitted to vary freely. A reasonable fit to the experimental data was observed when the reduction potential of the first reduction Ei ═-0.657 V vs. SHE, the reduction potential of the second reduction E2 ═-0.717 V vs. SHE, and the two electrochemical rate constants ko,i and ko,2 both equaled 7×10^−3 cm s^-1, a value very close to that observed in other anthraquinone systems (Huskinson, B. et al. Nature 505, 195-198 (2014)).

Data set [6] in a line: Rotating-disk electrode study / Levich plot. To be noted: 1 mM in 1 M KOH, Levich equation, three runs. The method, then: FIGS. 3a-3d. a. Rotating disk electrode study of the reduction of a 1 mM solution of 2,6-DHAQ in 1 M KOH on a glassy carbon electrode at various rotation rates (curves from top to bottom in legend). b. Levich plot of 1 mM 2,6-DHAQ in 1 M KOH. Data are an average of the current at -1.187 V vs. SHE for each of three runs; error bars indicate the standard deviation. c. Cyclic voltammogram of 1 mM 2,6-DHAQ in 1 M KOH (solid line). Dashed lines represent simulated cyclic voltammograms of a two-electron reduction of varying electrochemical rate constant ko and a reduction potential Eo of -0.684 V vs. SHE. The simulations assumed a ═0.5. The scan rate in all cases was 25 mV s^-1. d. […]
Electrochemical characterization. […] All tests were carried out using a Gamry Reference 3000 potentiostat, with a Pt counter electrode and an Ag/AgCI reference electrode (equilibrated with 3M NaCI, 213 mV vs. standard hydrogen electrode. A Levich plot was constructed from the RDE data by plotting the mass-transport limited current vs. the square root of the rotation rate (FIG. 3b). The diffusion coefficient of 2,6-DHAQ was calculated for each of three runs from the slope of the line fit to the Levich equation (Bard, A. J. & Faulkner, L. R. Electrochemical Methods: Fundamentals and Applications. (Wiley, 2000)). The kinematic viscosity was taken to be 1.08×10^−6 m^2 s^-1 (Hitchcock, L. B. & Mcllhenny, J. S. Ind. […]

A short description of data set [7]: Cyclic voltammetry of FMN and ferrocyanide. To be noted: 2 mM, 100 mV/s, glassy carbon electrode. The protocol:
FIG. 5. Cyclic voltammogram of 2 mM FMN (left curve) and ferrocyanide (right curve) scanned at 100 mV/s on glassy carbon electrode; arrows indicate scan direction.
Before and during the test, the electrolytes were purged with UHP nitrogen to remove and then keep out atmospheric oxygen. […] Galvanostatic cycling shown in […]

Where [8] appears, read: after 100 charge-discharge cycles.
The mark [9] stands for this setting: 1 mM in 1 M KOH, simulated fit, two successive one-electron reductions.

The term solubility denotes how much of the substance goes into solution per volume.

Molecules are shown by their SMILES. Where “and” joins values, the source holds several entries; their conditions need not be identical. Equal values may be shown once.

As for `Cc1c(O)ccc2c1C(=O)c1ccc(O)c(C)c1C2=O` [1,5-DMAQ, 1,5-dimethyl-2,6-dihydroxy-9,10-anthraquinone], in data set [1], the “equilibrium cell potential vs. ferro/ferricyanide suggested by cyclic voltammograms” value was ~1.35 V and the “equilibrium potential of couple with ferrocyanide compared with 2,6-DHAQ/ferrocyanide” value is on record as “higher equilibrium potential than 2,6-DHAQ/ferrocyanide”.

On to `O=C1c2cc(O)c(O)cc2C(=O)c2cc(O)c(O)cc21` [2,3,6,7-THAQ, 2,3,6,7-tetrahydroxy-9,10-anthraquinone], for which, in data set [1], the “equilibrium cell potential vs. ferro/ferricyanide suggested by cyclic voltammograms” value is listed as ~1.35 V and the “equilibrium potential of couple with ferrocyanide compared with 2,6-DHAQ/ferrocyanide” value was “higher equilibrium potential than 2,6-DHAQ/ferrocyanide”.

Consider `O=C1c2ccc(O)cc2C(=O)c2ccc(O)cc21` [2,6-DHAQ, 2,6-dihydroxy-9,10-anthraquinone], for which the “equilibrium cell potential vs. ferro/ferricyanide suggested by cyclic voltammograms” value in data set [1] is 1.2 V. Moreover, the “decomposition by proton NMR” value in data set [2] was “no decomposition product”. Besides, in data set [3] (setting [8]), the “concentration of 2,6-DHAQ crossed over into the posolyte” value is < 10000 µM; the “fraction of 2,6-DHAQ crossed over the membrane into the posolyte” value was < 1% and < 2%. Moreover, in data set [3] (after 100 charge-discharge cycles, listed as DHAQ), the “fraction of 2,6-DHAQ crossed over the membrane into the posolyte” value is on record as ≤ 0.8%. Also, the crossover current density in data set [3] (implied by crossover upper limit) is < 2.5 μA cm^-2. The solubility in data set [4] was > 600 mM. The “reduction potential E0 (voltage equidistant from the two CV peaks)” value in data set [5] (1 mM in 1 M KOH, two-electron reduction model) is given as -0.684 V vs. SHE. In addition, in data set [5] (setting [9]), the “reduction potential of the first one-electron reduction” value was -0.657 V vs. SHE and the “reduction potential of the second one-electron reduction” value is on record as -0.717 V vs. SHE. The “rate constant ko of each simulated reduction” value in data set [5] (FIG. 3d legend, simulated fit) was 7 x 10^-3 cm 5^-1. In addition, the “separation of the potentials of the two one-electron reductions” value in data set [5] (pH 14) is 0.06 V. For the same compound, the “electrochemical rate constant k0 (both reductions)” value in data set [5] (simulated fit, charge transfer coefficient 0.5) was 0.007 cm/s. The diffusion coefficient in data set [6] was 4.8(2) x 10^-6 cm^2 s^-1.

`Cc1cc2nc3c(=O)[nH]c(=O)nc-3n(C[C@@H](O)[C@@H](O)[C@@H](O)COP(=O)(O)O)c2cc1C` [FMN, riboflavin 5′ phosphate]: in data set [7], the “overall peak separation of cyclic voltammograms vs. ferrocyanide” value is on record as 1 V.

These data come from patent publication US20180048011A1, “HIGH pH ORGANIC FLOW BATTERY” (President and Fellows of Harvard College, priority 2015, published 2018).
